Reference: patent US20240082221A1, “COMPOSITIONS AND METHODS FOR THE IDENTIFICATION OF COMPOUNDS THAT PROTECT AGAINST LIPOFUSCIN CYTOTOXICITY” (priority 2021, published 2024)
Entries after “also recorded” stand apart in the source; their conditions may differ. Each block holds one compound with its values, some of them ahead of it.

Tests used:
ARPE-19 cells [1] = settings: for protection against light-independent LF (A2E/ATRD) cytotoxicity, RPE survival: ARPE-19, inhibitor pretreatment, A2E/ATRD 24 h, no light; for cell death in ARPE19 cells exposed to the substance: light-independent
Description: Cell Viability Assay. […] 1× AlamarBlue solution prepared in OptiMEM was used to replace the media supernatant and the plate's fluorescence was determined at 555 nm excitation/585 nm emission with a SpectraMax M (Molecular Devices, CA, USA), after 1 h. […] The exact timing of appearance of far-red (DRAQ7=plasma membrane leakage) and blue (NUC405=caspase 3 activation) fluorescence signals was critical to differentiate apoptosis and necrosis from secondary events, such as membrane damage and generalized proteolytic activation during the late phase of apoptosis and necrosis, respectively.
Real time monitoring of necrotic and apoptotic cell-death. Cell-death assay to study Lipofuscin's dark toxicity was performed. 90% confluent ARPE-19 or hfRPE were incubated overnight in serum free media supplemented with indicated LB concentration. Viability was assessed at 24 hrs by AlamarBlue®, or microscopy with NUC405/DRAQ7. Real time monitoring of necrotic (red) and apoptotic (blue) cell-death was performed by automated fluorescence microscopy. The exact timing of appearance of far-red (DRAQ7=plasma membrane leakage) and blue (NUC405=caspase 3 activation) fluorescence signals was critical to differentiate apoptosis and necrosis from secondary events, such as membrane damage and generalized proteolytic activation during the late phase of apoptosis and necrosis, respectively.
Chemical inhibitors. Chemical inhibitors used in this study are described in FIG. 12.

human MLKL = test: Western blot of Ser358 phospho-MLKL, phosphorylation and polymerization of MLKL; assay type: cell-based; settings: for effect on LF-induced phosphorylation and polymerization of MLKL: non-reducing conditions, cells with A2E/ATRD; for induction of phosphorylation and polymerization of MLKL: absence of light
Description: (§1) Immunoblotting. Total cell lysates were extracted using RIPA lysis buffer (50 mM TrisHCl, Ph 8.0, 150 mM NaCl, 1% NP40, 0.5% Sodium Deoxycholate, 0.1% SDS, protease-phosphatase inhibitor) after the incubation of the specific sample group in a 48 well plate. Sonication or syringing (20 times) was done followed by centrifugation at 12,000×g for 10 mins and the supernatant was collected and stored in −80° C. Proten concentration from homogenates were assessed by Pierce Rapid Gold BCA protein assay kit (ThermoFisher Scientific, cat.no. A53225). Then 30 μg of protein was analyzed by standard SDS-PAGE gel. Samples were mixed 4:1 (v:v) with Nupage loading buffer with or without 8% 0-mercaptoethanol and heated for 10 min at 72° C. SDS-PAGE was done using 4-12% Nupage gel and buffer (Life, NP0335BOX). Next, SDS-PAGE gel was transferred to nitrocellulose membrane (Whatman, PROTAN BA83) overnight at 20V. The following day, 5% milk in TBS was used for 2 h blocking the membrane and then primary antibody was added in TBST (TBS, 0.1% Tween-20) for overnight at 4° C. Next day membranes were washed and incubated for 2 hours at room temperature with HRP conjugated secondary antibody (cat #G21234, Invitrogen) at 1:10,000 dilution. After 3 more washed membranes were probed with enhanced chemiluminescence (ECL) reagent and detected using an X-ray films for chemiluminescence image (GE healthcare, RPN2106). Scanning/imaging and quantitation of the image was done using silverfast 8 application software and Fiji Image J. Antibodies for Western blotting were list in FIG. 10.
For its phosphorylation, MLKL and its kinase need to be recruited into multiprotein complexes, known as necrosomes (FIG. 4O). Necrosomes are not well conserved among species and vary also with the nature of the stimuli that triggers their formation. […] Considering that phosphorylation of human MLKL at Ser358 (pMLKL), is a hallmark triggering event and marker of necroptosis, the Ser358-phosphorylation and polymerization status of MLKL in cells with LF was determined. […] A prerequisite for the assembly of these RIP kinases into necrosomes was their phosphorylation.

CHOP = test: Western blot of CHOP upregulation (UPR, downstream of PERK); assay type: cell-based, Human; settings: cells incubated with A2E
Description: as §1

ARPE19 cells = test: ATR-induced light-independent cell death; assay type: cell-based, Human; settings: pre-treatment with 33 μM
Description: Overall, these indicate that necroptosis is a specific readout of ocular lipofuscin toxicity, easily distinguishable from the poisonous effects of ATR.

IRE1α [2] = test: qPCR of spliced XBP1 (XBP1s) as readout of IRE1α activity in ARPE-19; assay type: cell-based, Human; settings: for induction of XBP1s: in the dark, qPCR
Description: RNA isolation and quantitative PCR. Total RNA was extracted from cultured cells or mouse eye RPE layer using the RNeasy Mini kit (QIAGEN). The total RNA was digested with deoxyribonuclease I to prevent amplification of genomic DNA. The total RNA then was reversed transcribed using High-Capacity cDNA Reverse Transcription Kit (ThermoFisher Scientific, cat.no. 4368814) and analyzed gene expression using SYBR Green Master Mix (ThermoFisher Scientific, cat.no. 4472908) in an Applied Biosystems StepOne real time PCR machine. GAPDH was used as a reference gene. […] After genes were amplified by real time PCR, some of the PCR products were separated by 2.5% agarose gel.

[3] = system: UPR (PERK and ATF6 branches); test: Western blot of ER-stress markers (p-eIF2a, ATF4, BiP, ATF6) without illumination; assay type: cell-based, Human; settings: for cleavage of ATF6: 6 hrs treatment, 20 μM A2E
Description: as §1
The causal link between LF accumulation and ER-stress without light assistance was analyzed (FIG. 6A). […] The activation of the IRE1α branch was visualized by qPCR.

cathepsin D = assay type: cell-based
Description: (§2) Next, A2E buildups were imaged using a combination of DIC and fluorescence: A2E appeared as granules with well-defined edges, both within cells or after drying over a coverslip (FIGS. 14D and 14E). Next, the ability of the suspected A2E crystals to damage lysosomal membranes was investigated. A recently developed galectin-3 puncta assay for early detection of lysosomal membrane permeabilization (LMP) was used. Briefly, cytosolic galectin-3 rapidly binds to the glycocalyx in the luminal face of lysosomal membranes as they become leaky, which is easily detectable with anti-galectin high-affinity antibodies. L-Leucyl-L-Leucine methyl ester (LLO) a lysosomotropic peptide that causes LMP was used as positive control of puncta formation (FIG. 14E). […] LMP was confirmed by showing the […] of cathepsin D, as surrogate of lysosomal enzymes. […] Also, very remarkable was the observation that the same unique pattern of protection with arimoclomol and Nec-7 but not Nec-1 was observable for LLO (FIG. 14K), consistent with the idea that necroptosis by A2E is being caused by LMP.

lysosomal membranes = assay type: cell-based
Description: as §2

[4] = Detection of lipid bisretinoids aggregation by filter passage; assay type: physicochemical
Description: Detection of lipid bisretinoids aggregation.

Oxidative damage by H2O2 = assay type: cell-based
IRE1α [5] = test: Western blot of light-independent phosphorylation of IRE1α induced by LF; assay type: cell-based
Description: as §1, with “The following day, 5% milk in TBS was used for 2 h blocking the membrane and then primary antibody was added in TBST (TBS, 0.1% Tween-20) for overnight at 4° C. Next day membranes were washed and incubated for 2 hours at room temperature with HRP conjugated secondary antibody (cat #G21234, Invitrogen) at 1:10,000 dilution.” left out

pMLKL = test: Fluorescence microscopy of pMLKL plasma membrane translocation in ARPE-19 monolayers; assay type: cell-based, Human; settings: ARPE-19 with A2E or ATRD
Description: Chronic accumulation of polymeric pMLKL could account for progressive damage in pigmented retinas as they amass LF.

ARPE-19 cells [6] = test: Blue-light phototoxicity of A2E-loaded cells, AlamarBlue; assay type: cell-based, Human; settings: A2E 5 μM O/N, blue light 10 min, viability after 24 hrs
Description: FIG. 18A: ARPE19 cells were pretreated for 1 hr with the […] of: eIF2a (Salubrinal (SAL), SAL003, or Guanabenz); eIF4 (Briciclib or eFT508); mTOR (Rapamycin, Torin-1); or the unspecific protein translation inhibitor (Cyclohexamide CHX) and then incubated with lethal doses of A2E (25 μM) for an additional 24 hrs in the presence of these drugs. Viability was assessed with AlamarBlue®. […] Viability was assessed with AlamarBlue®. […] ARPE-19 cells were incubated O/N with a non-toxic amount of A2E (5 μM) to allow its incorporation into lysosomes and after changing the media for PBS and irradiating for 10 min with blue light cells were maintained for an additional 24 hrs in Optimem before evaluating viability, using AlamarBlue®. FIG. 18D: Fluorescence microscopy of cells incubated with lethal amounts of A2E (25 μM) in Optimem for 24 hrs. Green fluorescence corresponds to A2E deposits. Nuclei are stained with the DNA dye, Hoechst, in viable cells (blue) and with Hoechst and DRAQ7 (a DNA dye that only enter cells with disrupted membranes) in dead cells (purple).
Blue light treatment. ARPE19 cells were grown at 70% confluence and were treated with or without 20 μM A2E in culture medium for 24 h. Then, HBSS replaced the cell culture medium before blue light treatment. ARPE19 cells with or without A2E intake, were illuminated by 460+20 nm wavelength light for 20 min.

Compound: CN1C(=O)C(Cc2c[nH]c3ccccc23)NC1=S (centres unmarked) [Nec1, Necrostatin-1]
protection against light-independent LF (A2E/ATRD) cytotoxicity, RPE survival (ARPE-19 cells [1]; AlamarBlue): not affected
effect on LF-induced phosphorylation and polymerization of MLKL (human MLKL): did not block phosphorylation and polymerization of MLKL; also recorded: not affected
effect on LF-induced upregulation of CHOP / UPR (CHOP): neither Nec1 nor GSK'872 effected the UPR
effect on cell death by ATR (ARPE19 cells): did not block cell death

Compound: all-trans-retinal dimers [ATRD]
cell death in ARPE19 cells exposed to the substance (ARPE-19 cells [1]): Dose dependent cell death
induction of phosphorylation and polymerization of MLKL (human MLKL): dose-dependent phosphorylation and polymerization of MLKL
induction of XBP1s (IRE1α [2]): dose and time-dependent inductions of XBP1s
induction of ATF4 and BiP ([3]; without light): highest induction of ATF4 and BiP

Compound: [O-][n+]1cccc(/C(Cl)=N/OC[C@H](O)CN2CCCCC2)c1 [arimoclomol]
protection against light-independent LF (A2E/ATRD) cytotoxicity, RPE survival (ARPE-19 cells [1]; AlamarBlue): protects against necroptosis by lipofuscin
effect on loss of cathepsin-D activity caused by A2E (cathepsin D): prevented

Compound: Cc1cc(O)c(C(=O)/C=C/c2ccc(O)c([N+](=O)[O-])c2)c(=O)o1 [Nec2]
protection against light-independent LF (A2E/ATRD) cytotoxicity, RPE survival (ARPE-19 cells [1]; AlamarBlue): not affected
effect on LF-induced phosphorylation and polymerization of MLKL (human MLKL): not affected

Compound: CC1=C(/C=C/C(C)=C/C=C/C(C)=C/C=O)C(C)(C)CCC1 [ATR, all-trans-retinal]
cell death in ARPE19 cells exposed to the substance (ARPE-19 cells [1]): Dose dependent cell death
induction of phosphorylation and polymerization of MLKL (human MLKL): no increase in phosphorylation/polymerization of MLKL

Compound: CC(C=CC1=C(C)CCCC1(C)C)=CC=CC(C)=Cc1cc(C=CC=C(C)C=CC2=C(C)CCCC2(C)C)cc[n+]1CCO [A2E, N-retinylidene-N-retinylethanolamine]
cell death in ARPE19 cells exposed to the substance (ARPE-19 cells [1]): Dose dependent cell death
induction of phosphorylation and polymerization of MLKL (human MLKL): dose-dependent phosphorylation and polymerization of MLKL
induction of XBP1s (IRE1α [2]): dose and time-dependent inductions of XBP1s
cathepsin-D activity (cathepsin D): caused reduction in cathepsin-D activity
lysosomal membrane permeabilization (galectin-3 puncta) (lysosomal membranes): clearly caused puncta staining and therefore LMP
passage through 3 μm filter in aqueous milieu ([4]; 3 μm cut-off, same material): did cross membranes with 3 μm cut-off
passage through 0.45 μm filter in aqueous milieu ([4]; 450 nm filter pores): could not move across 450 nm filter pores
cleavage of ATF6 [3]: significant cleavage
Ser51 phosphorylation of eIF2a ([3]; without light): strongest Ser51 phosphorylation of eIF2a

Compound: COc1ccc(-n2c(SCC#N)nc3sc4c(c3c2=O)CCCC4)cc1 [Nec5]
protection against light-independent LF (A2E/ATRD) cytotoxicity, RPE survival (ARPE-19 cells [1]; AlamarBlue): not affected
effect on LF-induced phosphorylation and polymerization of MLKL (human MLKL): not affected

Compound: tunicamycin
cleavage of ATF6 [3]: significant cleavage

Compound: CC(=O)N[C@@H](CS)C(=O)O [NAC, N-acetyl cysteine]
prevention of oxidative damage by H2O2 (Oxidative damage by H2O2): effectively prevented oxidative damage by H2O2
light-independent phosphorylation of IRE1α induced by LF in presence of antioxidant (IRE1α [5]): proceeded unaffected

Compound: CC(C)S(=O)(=O)c1ccc2nccc(Nc3ccc4scnc4c3)c2c1 [GSK'872]
protection against light-independent LF (A2E/ATRD) cytotoxicity, RPE survival (ARPE-19 cells [1]; AlamarBlue): did not protect; also recorded: not affected
effect on LF-induced phosphorylation and polymerization of MLKL (human MLKL): did not; also recorded: not affected
effect on LF-induced upregulation of CHOP / UPR (CHOP): neither Nec1 nor GSK'872 effected the UPR

cathepsin-D activity (cathepsin D): caused reduction in cathepsin-D activity
Compound: COC(=O)[C@H](CC(C)C)NC(=O)[C@@H](N)CC(C)C [LLO, L-Leucyl-L-Leucine methyl ester]
lysosomal membrane permeabilization (galectin-3 puncta) (lysosomal membranes): induced Lysosome membrane permeabilization (LMP)

Compound: CN1C(=O)NC(Cc2c[nH]c3c(Cl)cccc23)C1=O (centres unmarked) [Nec1s]
protection against light-independent LF (A2E/ATRD) cytotoxicity, RPE survival (ARPE-19 cells [1]; AlamarBlue): not affected
effect on LF-induced phosphorylation and polymerization of MLKL (human MLKL): not affected
effect on cell death by ATR (ARPE19 cells): did not block cell death

Compound: O=C(/C=C/c1ccccc1)NC(NC(=S)Nc1cccc2cccnc12)C(Cl)(Cl)Cl (centres unmarked) [Salubrinal]
protection against lethal doses of A2E, viability (ARPE-19 cells [1]; ARPE19 pretreated 1 hr, then A2E 25 μM for 24 hrs in presence of drug, AlamarBlue): protected against lipofuscin
requirement of PERK / ATF4 for protection against lipofuscin (ARPE-19 cells [1]; with PERK inhibitor GSK2606414 or ATF4-shRNA, A2E 25 μM 24 hrs): needs PERK but not ATF4 to exert protection against lipofuscin
effect on LF-induced pMLKL plasma membrane localization (pMLKL): abrogated
effect on LF-induced XBP1 splicing (XBP1s, IRE1α activity) (IRE1α [2]; ARPE-19, qPCR, listed as SAL): inhibits IRE1α signaling; also recorded: abrogated
protection against phototoxic decomposition of lipid bisretinoids (ARPE-19 cells [6]): does not protect against the phototoxic decomposition of lipid bisretinoids
